pIC50: −log10 of the molar value.
tested on: A II receptor; assay: Angiotensin II ligand-receptor binding assay (rabbit aortae membrane preparation / bovine adrenal cortex preparation); conditions: "at least IC50 <50 μM"; not stated which of the two binding assays (rabbit aortae, 125I-Sar1Ile8-A II; bovine adrenal cortex, 3H-A II); read-out: IC50 (50% displacement of specifically bound radiolabelled angiotensin II ligand)
Description: Angiotensin II (A II) is a powerful arterial vasoconstrictor, and it exerts its action by interacting with specific receptors present on cell membranes. The compounds described in the present invention act as competitive antagonists of A II at the receptors. In order to identify A II antagonists and determine their efficacy in vitro, the following two ligand-receptor binding assays were established.
Receptor binding assay using rabbit aortae membrane preparation
Three frozen rabbit aortae (obtained from Pel-Freeze Biologicals) were suspended in 5 mM Tris-0.25M Sucrose, pH 7.4 buffer (50 ml) homogenized, and then centifuged. The mixture was filtered through a cheesecloth and the supernatant was centrifuged for 30 minutes at 20,000 rpm at 4° C. The pellet thus obtained was resuspended in 30 ml of 50 mM Tris-5 mM MgCl2 buffer containing 0.2% Bovine Serum Albumin and 0.2 mg/ml Bacitration and the suspension was used for 100 assay tubes. Samples tested for screening were done in duplicate. To the membrane preparation (0.25 ml) there was added ^125 I-Sar^1 Ile^8 -angiotensin II [obtained from New England Nuclear] (10 ul; 20,000 cpm) with or without the test sample and the mixture was incubated at 37° C. for 90 minutes. The mixture was then diluted with ice-cold 50 mM Tris-0.9% NaCl, pH 7.4 (4 ml) and filtered through a glass fiber filter (GF/B Whatman 2.4" diameter). The filter was soaked in scintillation cocktail (10 ml) and counted for radioactivity using Packard 2660 Tricarb liquid scintillation counter. The inhibitory concentration (IC50) of potential A II antagonist which gives 50% displacement of the total specifically bound ^125 I-Sar^1 Ile^8 -angiotensin II was presented as a measure of the efficacy of such compounds as A II antagonists.
Receptor assay using Bovine adrenal cortex preparation
Bovine adrenal cortex was selected as the source of A II receptor. Weighed tissue (0.1 g is needed for 100 assay tubes) was suspended in Tris.HCl (50 mM), pH 7.7 buffer and homogenized. The homogenate was centrifuged at 20,000 rpm for 15 minutes. Supernatant was discarded and pellets resuspended in buffer [Na2 HPO4 (10 mM)-NaCl (120 mM)-disodium EDTA (5 mM) containing phenylmethane sulfonyl fluoride (PMSF)(0.1 mM)]. (For screening of compounds, generally duplicates of tubes are used). To the membrane preparation (0.5 ml) there was added 3H-angiotensin II ([…]) (10 ul) with or without the test sample and the mixture was incubated at 37° C. for 1 hour. The mixture was then diluted with Tris buffer (4 ml) and filtered through a glass fiber filter (GF/B Whatman 2.4" diameter). The filter was soaked in scintillation cocktail (10 ml) and counted for radioactivity using Packard 2660 Tricarb liquid scintillation counter. […]

pIC50, > 4.30:
CCCCc1nc2sc(C(=O)OC)cc2n1Cc1ccc(-c2ccccc2-c2nnn[nH]2)cc1 [Example 6, 2-butyl-1-[(2'-{1H-tetrazol-5-yl}{1,1'-biphenyl}-4-yl)methyl]-1H-thieno[2,3-d]imidazole-5-carboxylic acid methyl ester]
CCCCc1nc2cscc2n1Cc1ccc(-c2ccccc2C(=O)O)cc1 [Example 1, 4'-[(2-butyl-1H-thieno[3,4-d]imidazol-1-yl)methyl][1,1'-biphenyl]-2-carboxylic acid]
CCCCc1nc2cc(C(=O)OC)sc2n1Cc1ccc(-c2ccccc2C(=O)O)cc1 [Example 3, 2-butyl-3-[(2'-carboxy{1,1'-biphenyl}-4-yl)methyl]-3H-thieno[2,3-d]imidazole-5-carboxylic acid methyl ester]
CCCc1nc2c(c(C)nn2C)n1Cc1ccc(-c2ccccc2-c2nnn[nH]2)cc1 [Example 11, 1,4-Dihydro-1,3-dimethyl-5-propyl-4-[(2'-{1H-tetrazol-5-yl}{1,1'-biphenyl}-4-yl)methyl]imidazo[4,5-c]-pyrazole]

From patent US5389660A, “Substituted imidazo-fused 5-membered ring heterocycles as angiotensin II antagonists” (Merck & Co., Inc., priority 1992, dated 1995)
